Experimental data taken from BindingDB's records for doi:10.1016/j.bmcl.2006.05.060 (University of Kentucky, 2006).

How the values were obtained:
[1] = Displacement of radiolabeled NalBzOH from kappa3 opioid receptor in Hartley guinea pig brain
[2] = Displacement of radiolabeled DPDPE-Cl from delta opioid receptor in Hartley guinea pig brain

C=CCN1CCC23c4c5ccc(O)c4O[C@@H]2C(=NNC(=O)c2ccccc2)CCC3(O)C1C5 (stereo not given in full)
Ki [1]: 0.3 nM

CSCC[C@H](NC(=O)[C@H](Cc1ccccc1)NC(=O)CNC(=O)CNC(=O)[C@@H](N)Cc1ccc(O)cc1)C(=O)O [2-[(S)-2-(2-{2-[(S)-2-Amino-3-(4-hydroxy-phenyl)-propionylamino]-acetylamino}-acetylamino)-1-oxo-3-phenyl-propylamino]-4-methylsulfanyl-butyric acid]
Ki [1]: 277 nM

CC1(C)SSC(C)(C)[C@@H](NC(=O)[C@@H](N)Cc2ccc(O)cc2)C(=O)NCC(=O)N[C@@H](Cc2ccc(Cl)cc2)C(=O)N[C@H]1C(=O)O [(4S,7S,13S)-13-[(S)-2-Amino-3-(4-hydroxy-phenyl)-propionylamino]-7-(4-chloro-benzyl)-3,3,14,14-tetramethyl-6,9,12-trioxo-1,2-dithia-5,8,11-triaza-cyclotetradecane-4-carboxylic acid]
Ki [1]: 1030 nM

COc1ccc2c3c1O[C@H]1[C@@H](OS(=O)(=O)O)C=C[C@H]4[C@@H](C2)N(C)CC[C@@]341 [C6S]
Ki [2]: 414 nM | Ki [1]: 455 nM

COc1ccc2c3c1O[C@H]1[C@@H](OS(=O)(=O)O)CC[C@H]4[C@@H](C2)N(C)CC[C@@]341 [DC6S]
Ki [2]: 1150 nM | Ki [1]: 760 nM

CC(=O)Oc1ccc2c3c1O[C@H]1[C@@H](OS(=O)(=O)O)CC[C@H]4[C@@H](C2)N(C)CC[C@@]341 [DM3A6S]
Ki [2]: 325 nM

CN1CC[C@]23c4c5ccc(OC(=O)c6ccccc6)c4O[C@H]2[C@@H](OS(=O)(=O)O)CC[C@H]3[C@H]1C5 [DM3B6S]
Ki [2]: 1600 nM

CN1CC[C@]23c4c5ccc(O)c4O[C@H]2[C@@H](OS(=O)(=O)O)CC[C@H]3[C@H]1C5 [DM6S]
Ki [2]: 19 nM | Ki [1]: 7 nM

CC(=O)Oc1ccc2c3c1O[C@H]1[C@@H](OS(=O)(=O)O)C=C[C@H]4[C@@H](C2)N(C)CC[C@@]341 [M3A6S]
Ki [2]: 154 nM | Ki [1]: 5.5 nM

CN1CC[C@]23c4c5ccc(OC(=O)c6ccccc6)c4O[C@H]2[C@@H](OS(=O)(=O)O)C=C[C@H]3[C@H]1C5 [M3B6S]
Ki [2]: 600 nM | Ki [1]: 513 nM

CC(C)C(=O)Oc1ccc2c3c1O[C@H]1[C@@H](OS(=O)(=O)O)C=C[C@H]4[C@@H](C2)N(C)CC[C@@]341 [M3IBu6S]
Ki [2]: 584 nM | Ki [1]: 266 nM

CN1CC[C@]23c4c5ccc(OC(=O)C(C)(C)C)c4O[C@H]2[C@@H](OS(=O)(=O)O)C=C[C@H]3[C@H]1C5 [M3P6S]
Ki [2]: 15 nM | Ki [1]: 11 nM

CCC(=O)Oc1ccc2c3c1O[C@H]1[C@@H](OS(=O)(=O)O)C=C[C@H]4[C@@H](C2)N(C)CC[C@@]341 [M3Pr6S]
Ki [2]: 40 nM | Ki [1]: 20 nM

CN1CC[C@]23c4c5ccc(OS(=O)(=O)O)c4O[C@H]2[C@@H](O)C=C[C@H]3[C@H]1C5 [M3S]
Ki [2]: > 10000 nM | Ki [1]: 1690 nM

CN1CC[C@]23c4c5ccc(O)c4O[C@H]2[C@@H](OS(=O)(=O)O)C=C[C@H]3[C@H]1C5 [M6S]
Ki [2]: 18 nM | Ki [1]: 6.3 nM

CC(=O)Oc1ccc2c3c1O[C@H]1[C@@H](OS(=O)(=O)[O-])C=C[C@H]4[C@@H](C2)[N+](C)(C)CC[C@@]341 [MM3A6S]
Ki [2]: 842 nM | Ki [1]: 400 nM

C[N+]1(C)CC[C@]23c4c5ccc(OC(=O)c6ccccc6)c4O[C@H]2[C@@H](OS(=O)(=O)[O-])C=C[C@H]3[C@H]1C5 [MM3B6S]
Ki [2]: > 10000 nM | Ki [1]: > 10000 nM

C[C@@H](NC(=O)[C@@H](N)Cc1ccc(O)cc1)C(=O)NCC(=O)N(C)[C@@H](Cc1ccccc1)C(=O)NCCO [[tyrosyl-3,5-3H(N)]-D-Ala2-Mephe4-glyol5-enkephalin]
Ki [1]: 27 nM
